From patent US20080318775A1, “Safening of pesticides with cyclopropenes” (priority 2007, published 2008) come the findings set out here.

Like-named read-outs stand apart in the source and are kept apart here.

Series [1] relates to GLYPHOSATE-resistant soybeans. Briefly: Plant height of soybeans sprayed with 0.05% PHYSAN 20 fungicide/antimicrobial agent with or without 1-MCP. It counts as in vivo. To be noted: 10 ppm 1-MCP with 0.05% PHYSAN 20; plant height after 21 days.
In series [2] the test system is GLYPHOSATE-resistant soybeans. Particulars: in vivo.
Series [3] relates to GLYPHOSATE-resistant soybeans. To be noted: in vivo. This is another data set of the same source.
Series [4] concerns GLYPHOSATE-resistant soybeans. Briefly: Plant height of soybeans sprayed with 2% GLYPHOSATE with or without 1-MCP.
The test system of series [5] is GLYPHOSATE-resistant soybeans. Briefly: Plant height of soybeans sprayed with 0.5% GLYPHOSATE with or without 1-MCP.

As for `CC1=CC1` [1-MCP, 1-methylcyclopropene], in series [1], the “Effect compared to the fungicide-treated plants (in words)” value is recorded as “positive effect”. Besides, the “Effect on the negative effect of the fertilizer on plant growth (in words)” value in series [2] is listed as “able to alleviate some of that effect”. Further, the “Effect on setback caused by the insecticide (in words)” value in series [3] was “able to mediate some of the setback caused by the insecticide”. Further, the “Effect on plant height / effect of the herbicide (in words)” value in series [4] (10 ppm 1-MCP with 2% GLYPHOSATE, with or without 0.1% Quillaja Saponin adjuvant, plant height after 21 days) is listed as “improved the height”. Moreover, in series [5] (10 ppm 1-MCP with 0.5% GLYPHOSATE, plant height after 21 days), the “Effect on growth reduction caused by the herbicide (in words)” value was “able to prevent the growth reduction caused by the herbicide”.

For `CNC(=O)Oc1cccc2ccccc12` [CARBARYL, reference compound], the “Plant Height” value in series [3] is 112.8.

As for `O=C(O)CNCP(=O)(O)O` [GLYPHOSATE, reference compound], the “Plant Height” value is 112.9 in series [4] (greenhouse, sprayed to run off at second true leaves, 2% GLYPHOSATE, 10 ppm 1-MCP (as α-cyclodextrin complex), adjuvant 0.1% Quillaja Saponin, 21 days after spray, untreated control 126) and 112.1 in series [5] (greenhouse, sprayed to run off at second true leaves, 0.5% GLYPHOSATE, 10 ppm 1-MCP (as α-cyclodextrin complex), adjuvant 0.1% Quillaja Saponin, 21 days after spray, untreated control 126).
